In data set [1] the test system is melanoma MelJuso. In words: In vivo efficacy, Mouse Xenograft Model (melanoma MelJuso). The conditions noted are these: 50 mg/kg i.p. daily for 14 days, FIG. 1; for Tumor growth after treatment: vs vehicle. As for the experimental part: (§1) The administered compounds were tested in vivo in the mouse xenograft model bearing human cancer cells. Briefly, female athymic nude mice strain NCRNU-M (5-10 weeks old, 20-25 grams in weight; Taconic, Germantown, N.Y.) was maintained in pathogen-free conditions. Three human cancer cell lines: NSCLC A549, melanoma MelJuso, and mesothelioma MS-1 were used. Five or ten mice were used in each group and injected s.c. with 3×10^6 cancer cells in the dorsal area in a volume of 100 μl. After inoculation, human cancer cells were allowed to grow in mice for 10-13 days to become visible tumor nodules. Animals were then injected with a compound of the embodiments at a dose of 50 mg/kg body weight (1 mg/mouse per day). Vehicle alone was used as control. The compounds and controls were adjusted in 40 ul volume for i.p. injection in the abdomens of the mice. Injections were performed daily around the same time for 14 days. Tumors were allowed to grow for 1-2 additional weeks after completion of the compound treatments. Tumor size was measured every three to four days, and tumor volumes were calculated using width (x) and length (y) (x^2y/2, where x<y). Throughout this period, general toxicity of the treatments was also monitored by measuring body weight of the mice. Data was presented as mean values (±S.D.).
In vivo efficacy study of Compounds 1, 2, 4, and 6 were performed using a Mouse Xenograft Model (Melanoma MelJuso). Mice were injected s.c. with 3×10^6 cells in the dorsal area in a volume of 100 μl. 13 days after inoculation, the mice started receiving treatments with the administered compound at a dose of 50 mg/kg body weight daily for 14 days (n=10). Vehicle alone was used as control (n=10). The administered compounds and vehicle were adjusted in a volume of 40 μl for i.p. injection in the abdomens of the mice. Tumor size and tumor volumes were calculated as described above.

Data set [2] relates to mesothelioma MS-1. In words: In vivo efficacy, Mouse Xenograft Model (mesothelioma MS-1). The conditions noted are these: MS-1 xenograft, 50 mg/kg i.p. daily for 14 days, vs control group, FIG. 2. As for the experimental part: as §1, with “Data was presented as mean values (±S.D.).” left out
Model (Mesothelioma MS-1). […] Tumor sizes was measured twice weekly until the completion of the experiments. […]

The test system of data set [3] is NSCLC A549. Briefly: In vivo efficacy, Mouse Xenograft Model (lung cancer A549). The conditions noted are these: 50 mg/kg i.p. daily for 14 days then another 7 days, tumors weighed day 43, vs control group, FIG. 3. As for the experimental part: as §1, with “Tumors were allowed to grow for 1-2 additional weeks after completion of the compound treatments.” left out, “Data was presented as mean values (±S.D.).” left out
In vivo efficacy study of Compounds 1 and 4 in Mouse Xenograft Model (NSCLC A549) was examined. […] 43 days after the initial tumor inoculation, tumors were dissected from the mice of each group and their weights were measured using a scale. […]

In data set [4] the test system is Hedgehog signaling pathway. Briefly: Quantitative real-time RT-PCR of Hh pathway genes in xenograft tumors. To be noted: Melanoma tumor (MelJuso) xenograft, pooled tumor from two mice, FIG. 4. Format: in vivo, mouse. As for the experimental part: (§2) Total RNA was isolated using Qiagen RNeasy Mini Kit (Valencia, Calif.). Hybridization probes and primers (Table 1) were purchased from Applied Biosystems (ABI, Foster City, Calif.). cDNA synthesis and Taqman® PCR were performed according to the manufactures' protocols. The gene expression was assayed in triplicate in ABI 7300 Real-time PCR System. Samples were normalized to their housekeeping gene GAPDH and then calculated by using 2^−dCt method.
To examine whether Compounds 1, 2, 4, and 6 suppressed tumor growth through inhibition of the Hedgehog signaling pathway in vivo, expression of the key components and direct target genes of the Hh pathway (e.g. Gli1, Gli2, Gli3, HHIP and Cyclin D1) were analyzed by quantitative real-time RT-PCR using total RNA isolated from the xenograft tumors. GAPDH served as a control. This RT-PCR analysis was performed using a “pooled” tumor from two randomly selected mice of each group with reasonable size tumors. […] The results are shown in FIG. 4, where C is control and V is vehicle.

In data set [5] the test system is Wnt signaling pathway. In words: Quantitative real-time RT-PCR of Wnt pathway genes in xenograft tumors. To be noted: Melanoma tumor xenograft, compared to controls, FIG. 4. The data set is classed as in vivo, mouse. The procedure:
as §2
To examine whether Compounds 1, 2, 4, and 6 suppressed tumor growth through inhibition of the Wnt signaling pathway in vivo, expression of the key components and direct target genes of the Wnt pathway (e.g. Wnt2, Axin2, EGFR, and Cyclin D1) were analyzed by quantitative real-time RT-PCR using total RNA isolated from the xenograft tumors. GAPDH served as a control. This RT-PCR analysis was performed using a “pooled” tumor from two randomly selected mice of each group with reasonable size tumors. […] The results are shown in FIG. 4, where C is control and V is vehicle.
(Quantitative PCR measures a nucleic acid by following its amplification.)

A short description of data set [6]: Preliminary in vivo toxicity: leukocyte population and body weight after in vivo treatment. Set-up: species or system mouse. The conditions noted are these: mice; for Changes of leukocyte population: at completion of the in vivo studies, FIG. 5; for Loss of body weight: during the course of drug administration, FIG. 6. The procedure:
as §1
(§3) After the in vivo studies were completed, different organs were resected from mice. These organs included liver, lung, heart, kidney, intestines, ovary, brain, spleen, skin, and muscle. The specimens were fixed in 4% buffered formaldehyde, embedded in paraffin, sectioned, and histologically analyzed by hematoxylin and eosin (HE) staining. The HE stained slides were examined by a mouse pathologist for toxicity evidence from all the organs as compared with vehicle controls. In addition, leukocytes (WBC: white blood cell, NE: neutrophil, LY: lymphocyte, MO: monocyte, EO: eosinophil, BA: basophil) from each animal from all treatment groups were collected and leukocyte population was counted through a blood cell counter.
(§4) As preliminary in vivo toxicity study of Compounds 1, 2, 4, and 6, it was examined if there were changes of leukocyte population and loss of body weight in the mice after the treatment. At the completion of the in vivo studies as described herein, leukocytes (WBC: white blood cell, NE: neutrophil, LY: lymphocyte, MO: monocyte, EO: eosinophil, BA: basophil) from each animal from all treatment groups were collected and leukocyte population was counted through a blood cell counter. Body weights of control groups (n=10) and the treated group (n=10) were measured using a scale during the course of drug administration. […] In an additional toxicity study, effect of different doses of compounds 4 and 6 on the body weight of mice was examined. The compounds were i.p. injected in the abdomens at 3 different doses: 25, 50, and 100 mg/kg body weight to mice (3 mice per dosing group) for 6 consecutive days.

Data set [7] is described as follows: Histological examination (H&E) of organs for toxicity. The data set is classed as in vivo. To be noted: mice, i.p. two doses daily for 6 days, FIGS. 8-11.
Excerpt: as §3
To analyze toxicity of the Compounds 1, 2, 4, and 6 in vivo, each group (three mice) was i.p. injected with two doses of each Compound daily for 6 days, and then major mouse organs, such as liver, spleen, kidney, and heart were resected from the mice. The specimens will be fixed in 4% buffered formaldehyde, embedded in paraffin, sectioned and histologically analyzed by hematoxylin and eosin (H&E) staining.

Data set [8] in a line: Additional toxicity study: body weight at different doses. The data set is classed as in vivo, mouse. The conditions noted are these: mice, i.p. 25, 50 and 100 mg/kg for 6 consecutive days, FIG. 7. The procedure:
Each dosing group contained 3 mice. The body weight of mice was measured using a scale. Results are the means±SD (error bars).
as §4

Data set [9] relates to human NSCLC cell lines. In words: Combination treatment, MTS cell proliferation assay, NSCLC cell lines. The data set is classed as cell-based. To be noted: lung cancer cells, 72 hours, Combination Index. From the text:
(§5) Another assay for determining the number of viable cells in proliferation or cytotoxicity assays is the MTS assay, a colorimetric method. MTS assay reagents are commercially available (Promega Corp., Madison, Wis.). The reagent contains a tetrazolium compound [3-(4,5-dimethylthiazol-2-yl)-5-(3-carboxymethoxyphenyl)-2-(4-sulfophenyl)-2H-tetrazolium, inner salt; MTS] and an electron coupling reagent (phenazine ethosulfate; PES). PES has enhanced chemical stability, which allows it to be combined with MTS to form a stable solution. The MTS tetrazolium compound (Owen's reagent) is bioreduced by cells into a colored formazan product that is soluble in tissue culture medium. This conversion may be accomplished by NADPH or NADH produced by dehydrogenase enzymes in metabolically active cells. The quantity of formazan product as measured by the absorbance at 490 nm is directly proportional to the number of living cells in culture. Because the MTS formazan product is soluble in tissue culture medium, this assay requires fewer steps than procedures that use tetrazolium compounds such as MTT. The formazan product of MTT reduction is a crystalline precipitate that requires an additional step in the procedure to dissolve the crystals before recording absorbance readings at 570 nm.
(§6) Combination treatments of the Compounds with several chemotherapies: erlotinib (Tarceva®), PI3K inhibitor LY294002, TGFβ inhibitor SB431542, and pemetrexed (Alimta®) were performed in human NSCLC and MM cell lines (FIGS. 12-17). In all experiments, NSCLC and MM cell lines were treated with different doses of each compound or combination for 72 hours, and MTS assays were performed to determine the cell proliferations. Combination Index (CI), calculated by CalcuSyn software (Biosoft, Cambridge, UK), was applied to describe the effect of the combination effects of two compounds, where CI<1 indicates Synergism, CI=1 indicates Additive effects, and CI>1 indicates Antagonism. Student's t-tests were applied for statistical analysis.
(In general: Tetrazolium dyes change colour on reduction, which living cells bring about.)

The subject of data set [10] is human MM cell lines (mesothelioma cells). Briefly: Combination treatment, MTS cell proliferation assay, MM (mesothelioma) cell lines. The data set is classed as cell-based. The conditions noted are these: 72 hours, Combination Index.
Excerpt: as §5, §6

`CC(C)(CO)CCCNC(=O)C1C(c2ccccc2)=NN(c2ccccc2)C1c1ccsc1` (stereo not drawn) [Compound 1, 1,3-diphenyl-5-thiophen-3-yl-4,5-dihydro-1H-pyrazole-4-carboxylic acid (5-hydroxy-4,4-dimethyl-pentyl)-amide]: in data set [1], the “Tumor weight after treatment” value was “significantly decreased” and the “Tumor growth after treatment” value is recorded as “dramatically suppressed”. Besides, in data set [2], the “Tumor weight after treatment” value is “significantly decreased”. Further, in [3], the “Tumor weight after treatment” value was “significantly decreased”. Also, the “Hh signaling (expression of Gli1, Gli2, Gli3, HHIP, Cyclin D1) in tumor” value (“Hh signaling” for short) in [4] is reported as “inhibited”. Further, the “Expression of the key indicator of canonical Wnt activation in tumor” value in [5] is given as “significantly down-regulated”. In [6], the “Changes of leukocyte population” value was “No noticeable changes” and the “Loss of body weight” value is on record as “No noticeable changes of leukocyte population or loss of the body weight”. Moreover, the “Toxicity in organs (liver, spleen, kidney, heart), H&E histology” value (shortened to “Toxicity in organs … H&E histology”) in data set [7] is reported as “No noticeable toxicity”.

In the case of `O=C(NCc1ccc(O)cc1)C1C(c2ccccc2)=NN(c2ccccc2)C1c1ccccc1` (stereo not drawn) [Compound 2, 1,3,5-triphenyl-4,5-dihydro-1H-pyrazole-4-carboxylic acid 4-hydroxy-benzylamide], in data set [1], the “Tumor weight after treatment” value is given as “significantly decreased” and the “Tumor growth after treatment” value was “dramatically suppressed”. The “Hh signaling” value in data set [4] is given as “inhibited”. In addition, the “Expression of the key indicator of canonical Wnt activation in tumor” value in data set [5] was “significantly down-regulated”. In data set [6], the “Changes of leukocyte population” value is listed as “No noticeable changes” and the “Loss of body weight” value is “No noticeable changes of leukocyte population or loss of the body weight”. For the same compound, the “Toxicity in organs … H&E histology” value in data set [7] is recorded as “No noticeable toxicity”.

Consider `CC(C)(CO)CCCNC(=O)C1C(c2ccc(F)cc2)=NN(c2ccccc2)C1c1cccc(F)c1` (stereo not drawn) [Compound 6, 3-(4-fluoro-phenyl)-5-(3-fluoro-phenyl)-1-phenyl-4,5-dihydro-1H-pyrazole-4-carboxylic acid (5-hydroxy-4,4-dimethyl-pentyl)-amide], for which, in data set [1], the “Tumor weight after treatment” value was “significantly decreased” and the “Tumor growth after treatment” value is “dramatically suppressed”. For the same compound, the “Hh signaling” value in data set [4] is given as “inhibited”. Besides, in [6], the “Changes of leukocyte population” value is recorded as “No noticeable changes” and the “Loss of body weight” value is “No noticeable changes of leukocyte population or loss of the body weight”. For the same compound, the “Loss of body weight” value in data set [8] is “no noticeable loss”. For the same compound, the “Toxicity in organs … H&E histology” value in [7] was “No noticeable toxicity”. In addition, the “Combination effect with PI3K inhibitor LY294002” value in data set [9] (FIG. 14) is on record as “synergy”. The “Combination effect with TGFβ inhibitor SB431542” value in data set [9] (FIG. 16) is given as “synergy”. Further, the “Combination effect with PI3K inhibitor LY294002” value in [10] (FIG. 15) is reported as “synergy”. For the same compound, the “Combination effect with pemetrexed (Alimta)” value in data set [10] (FIG. 17) was “synergy”.

The values are drawn from patent US9370521B2, “Targeting GLI proteins in human cancer by small molecules” (The Regents of the University of California, priority 2011, dated 2016).
